Data on nine molecules can be found in PMC5040747, “Preparation and Evaluation of a Novel Class of Amphiphilic Amines as Antitumor Agents and Nanocarriers for Bioactive Molecules” (Pharmaceutical Research, 2016).

What is called IC50 is the midpoint of a concentration-inhibition curve.

The test system of one data set is A673. In words: MTT cell proliferation assay, A673. Type of data set: cell-based. The following applies: Homo sapiens, A673, Ewing's Sarcoma, read-out: Cell killing activity IC50. Here is the method:
(§1) Cells were plated in 96-well tissue culture plates at a density of 1 × 10^3 cells/well, allowed to attach 24 h, and then left untreated or treated with growth medium containing different concentrations of the tested RCn compounds previously dissolved in PBS. After different time periods the cell vitality was determined by MTT assay according to the manufacture’s instruction (Promega). Results are reported as the micromolar concentration of RCn reducing cell survival to 50% (IC50).

The test system of the next data set is 143.98.2. In words: MTT cell proliferation assay, 143.98.2. The data set is classed as cell-based. To be noted: Homo sapiens, 143.98.2, Osteosarcoma, read-out: Cell killing activity IC50. Here is the method: as §1
For orientation: Tetrazolium assays rely on reduction of a dye to a coloured formazan, in cell work by metabolically active cells.

The test system of a further data set is SK-N-AS. In words: MTT cell proliferation assay, SK-N-AS. The following applies: Homo sapiens, Neuroblastoma, read-out: Cell killing activity IC50. Type of data set: cell-based. Here is the method: as §1
A further data set deals with S462TY. In words: MTT cell proliferation assay, S462TY. Type of data set: cell-based. To be noted: Homo sapiens, Malignant Peripheral Nerve Sheath Tumor, read-out: Cell killing activity IC50. Here is the method: as §1
The subject of the next data set is Ramos. In words: MTT cell proliferation assay, Ramos. The data set is classed as cell-based. The following applies: Homo sapiens, Lymphoma, read-out: Cell killing activity IC50. Here is the method: as §1
The test system of another data set is Rh41. In words: MTT cell proliferation assay, Rh41. Type of data set: cell-based. To be noted: Homo sapiens, Rh41, Rhabdomyosarcoma, read-out: Cell killing activity IC50. Here is the method:
as §1

For another data set, the system named is CHLA-20 cells. Briefly: Cell killing activity of drugs complexed with RC16 (MTT). To be noted: CHLA-20, free drug at concentration corresponding to that present in the complex, 48 h, percent of untreated cells. Type of data set: cell-based, human. Here is the method:
(§2) Aqueous solutions of RC16 (10 mM, 1 mL) were mixed with ethanol solutions of Doxorubicin, Paclitaxel or Etoposide (1 mM, 1 mL). After stirring 12 h at 25 C the mixtures were dialyzed through 5000 Da MW cutoff dialysis membranes against 100 ml water by changing the external medium every 8 h for 3 days. The RC16-drug complex collected after dialysis was freeze-dried and the solid residue obtained was spectrophotometrically analysed to estimate the percentage of drug in the final product. The anticancer activity of each complexed drug was evaluated in CHLA-20 as the difference between the activity of the complex and the pure RC16 at the same concentration of the complex.

The nature of data set [1]: Encapsulation of drugs in RC16 micelles. The following applies: drug complexed in RC16 micelles, after dialysis and freeze-drying. The data set is classed as physicochemical. Here is the method:
as §2

Each structure is given as a SMILES string. Like-named read-outs stand apart in the source and are kept apart here.

As to `CCCCCC1CN2CCCN3CCCCCC132` (stereo not drawn) [RC7, 2-pentyl-4,8-diazatricyclo[6.5.0.0^1,^4]tridecane], the 50% inhibitory concentration (IC50) in the data set with A673 (24 h) amounted to 5730 nM; in the data set with A673 (48 h) it was 4110 nM; in the data set with 143.98.2 (24 h) it was 4510 nM; in the data set on 143.98.2 (48 h), 3780 nM; with SK-N-AS (24 h), 5210 nM; in the data set with SK-N-AS (48 h), 3430 nM. The IC50 with S462TY (24 h) was 5620 nM; in the data set with S462TY (48 h) it was 3900 nM; in the data set with Ramos (24 h), 4550 nM; with Ramos (48 h), 3120 nM; with Rh41 (24 h) it was 5780 nM; in the data set with Rh41 (48 h), 4010 nM.
Take `COc1cc([C@@H]2c3cc4c(cc3[C@@H](O[C@@H]3O[C@@H]5CO[C@@H](C)O[C@H]5[C@H](O)[C@H]3O)[C@H]3COC(=O)[C@H]23)OCO4)cc(OC)c1O` [ETO, Etoposide]: the “Cell viability, % CTR (free drug)” value in the data set with CHLA-20 cells turned out to be 65.80 ± 5.76 % CTR. In addition, in data set [1], the “Encapsulation efficiency (weight percentage of drug in the final complex)” value is given as 1.0 ± 0.59%.
Consider `CCCCCCCCC1CN2CCCN3CCCCCC132` (stereo not drawn) [RC10, 2-octyl-4,8-diazatricyclo[6.5.0.0^1,^4]tridecane], for which the IC50 was 2600 nM in the data set with A673 (24 h); 2020 nM in the data set with A673 (48 h); 2550 nM in the data set on 143.98.2 (24 h); 1680 nM in the data set on 143.98.2 (48 h); 2140 nM with SK-N-AS (24 h); 1560 nM with SK-N-AS (48 h). In addition, the IC50 in the data set on S462TY (24 h) worked out at 2390 nM; with S462TY (48 h), 1780 nM; with Ramos (24 h) it was 2100 nM; in the data set on Ramos (48 h), 1030 nM; in the data set on Rh41 (24 h) it was 2850 nM; in the data set on Rh41 (48 h) it was 2030 nM.
Consider `CCCCCCCCCCCCCCCCC1CN2CCCN3CCCCCC132` (stereo not drawn) [RC18, 2-hexadecyl-4,8-diazatricyclo[6.5.0.0^1,^4]tridecane], for which the IC50 in the data set on A673 (24 h) was found to be 1030 nM; in the data set with A673 (48 h) it was 980 nM; in the data set on 143.98.2 (24 h), 920 nM; with 143.98.2 (48 h), 650 nM; in the data set on SK-N-AS (24 h) it was 1230 nM; in the data set on SK-N-AS (48 h), 750 nM. Also, the IC50 stood at 1670 nM with S462TY (24 h); 880 nM in the data set with S462TY (48 h); 830 nM in the data set with Ramos (24 h); 170 nM in the data set on Ramos (48 h); 1010 nM in the data set on Rh41 (24 h); 820 nM in the data set with Rh41 (48 h).
`CCCCCCCCCCCCC1CN2CCCN3CCCCCC132` (stereo not drawn) [RC14, 2-dodecyl-4,8-diazatricyclo[6.5.0.0^1,^4]tridecane]: the IC50 with A673 (24 h) came to 1270 nM; in the data set on A673 (48 h), 1130 nM; in the data set on 143.98.2 (24 h), 1310 nM; in the data set on 143.98.2 (48 h), 780 nM; in the data set on SK-N-AS (24 h) it was 1200 nM; in the data set with SK-N-AS (48 h) it was 630 nM. For the same molecule, the IC50 amounted to 1810 nM in the data set on S462TY (24 h); 950 nM in the data set with S462TY (48 h); 960 nM in the data set on Ramos (24 h); 220 nM with Ramos (48 h); 1360 nM with Rh41 (24 h); 970 nM with Rh41 (48 h).
Regarding `CC(=O)O[C@H]1C(=O)[C@@]2(C)[C@H]([C@H](OC(=O)c3ccccc3)[C@]3(O)C[C@H](OC(=O)[C@H](O)[C@@H](NC(=O)c4ccccc4)c4ccccc4)C(C)=C1C3(C)C)[C@]1(OC(C)=O)CO[C@@H]1C[C@@H]2O` [PTX, Paclitaxel], the “Cell viability, % CTR (free drug)” value in the data set with CHLA-20 cells is on record as 56.93 ± 4.61 % CTR. For the same molecule, the “Encapsulation efficiency (weight percentage of drug in the final complex)” value in data set [1] turned out to be 1.8 ± 0.73%.
The like results for `COc1cccc2c1C(=O)c1c(O)c3c(c(O)c1C2=O)C[C@@](O)(C(=O)CO)C[C@@H]3O[C@H]1C[C@H](N)[C@H](O)[C@H](C)O1` [DOXO, Doxorubicin] were, in that order, 27.62 ± 0.55 % CTR and 2.3 ± 0.78%.
For `CCCCCCCCCCCCCCCCCCC1CN2CCCN3CCCCCC132` (stereo not drawn) [RC20, 2-octadecyl-4,8-diazatricyclo[6.5.0.0^1,^4]tridecane], the IC50 is 1220 nM in the data set on A673 (24 h); 1350 nM with A673 (48 h); 1090 nM in the data set with 143.98.2 (24 h); 830 nM with 143.98.2 (48 h); 1600 nM in the data set with SK-N-AS (24 h); 900 nM in the data set with SK-N-AS (48 h). Also, the IC50 in the data set on S462TY (24 h) is 1830 nM; in the data set with S462TY (48 h) it was 1160 nM; in the data set with Ramos (24 h), 970 nM; in the data set with Ramos (48 h), 200 nM; in the data set with Rh41 (24 h), 1680 nM; in the data set with Rh41 (48 h), 1120 nM.
Regarding `CCCCCCCCCCC1CN2CCCN3CCCCCC132` (stereo not drawn) [RC12, 2-decyl-4,8-diazatricyclo[6.5.0.0^1,^4]tridecane], the IC50 with A673 (24 h) came out at 1820 nM; with A673 (48 h) it was 1650 nM; in the data set with 143.98.2 (24 h), 1980 nM; with 143.98.2 (48 h) it was 1240 nM; in the data set on SK-N-AS (24 h), 1870 nM; in the data set on SK-N-AS (48 h) it was 710 nM. Besides, the concentration for half-maximal inhibition (IC50) in the data set on S462TY (24 h) turned out to be 2000 nM; with S462TY (48 h), 1090 nM; in the data set with Ramos (24 h), 1180 nM; in the data set on Ramos (48 h), 740 nM; with Rh41 (24 h) it was 1750 nM; with Rh41 (48 h) it was 1160 nM.
